{
  "source": "PubChem BioAssay (NCI)",
  "assay_in_all_cases": "NCI tumour cell line growth inhibition, 48 h",
  "key": {"[1]": {"test_system": "SF-295 CNS"}, "[2]": {"test_system": "COLO 205 colon"}, "[3]": {"test_system": "MDA-MB-231 breast"}, "[4]": {"test_system": "786-0 renal"}, "[5]": {"test_system": "MALME-3M melanoma"}, "[6]": {"test_system": "UACC-257 melanoma"}, "[7]": {"test_system": "ACHN renal"}, "[8]": {"test_system": "SNB-19 CNS"}, "[9]": {"test_system": "HCT-116 colon"}, "[10]": {"test_system": "HS 578T breast"}, "[11]": {"test_system": "SW-620 colon"}, "[12]": {"test_system": "DU-145 prostate"}, "[13]": {"test_system": "UO-31 renal"}, "[14]": {"test_system": "SK-MEL-5 melanoma"}, "[15]": {"test_system": "HOP-62 NSCLC"}, "[16]": {"test_system": "HT29 colon"}, "[17]": {"test_system": "CAKI-1 renal"}, "[18]": {"test_system": "SR leukemia"}, "[19]": {"test_system": "SNB-75 CNS"}, "[20]": {"test_system": "NCI-H460 lung"}, "[21]": {"test_system": "SK-MEL-28 melanoma"}, "[22]": {"test_system": "UACC-62 melanoma"}, "[23]": {"test_system": "SK-MEL-2 melanoma"}, "[24]": {"test_system": "K-562 leukemia"}, "[25]": {"test_system": "SF-268 CNS"}, "[26]": {"test_system": "NCI-H522 lung"}, "[27]": {"test_system": "EKVX NSCLC"}, "[28]": {"test_system": "MOLT-4 leukemia"}, "[29]": {"test_system": "A498 renal"}, "[30]": {"test_system": "U251 CNS"}, "[31]": {"test_system": "PC-3 prostate"}, "[32]": {"test_system": "LOX IMVI melanoma"}, "[33]": {"test_system": "HOP-92 NSCLC"}, "[34]": {"test_system": "MDA-MB-435"}, "[35]": {"test_system": "M14 melanoma"}, "[36]": {"test_system": "SN12C renal"}, "[37]": {"test_system": "OVCAR-4 ovarian"}, "[38]": {"test_system": "MCF7 breast"}, "[39]": {"test_system": "T-47D breast"}, "[40]": {"test_system": "HCC-2998 colon"}, "[41]": {"test_system": "OVCAR-5 ovarian"}, "[42]": {"test_system": "HL-60(TB) leukemia"}, "[43]": {"test_system": "HCT-15 colon"}, "[44]": {"test_system": "RXF 393 renal"}, "[45]": {"test_system": "A549 NSCLC"}, "[46]": {"test_system": "NCI-H23 lung"}, "[47]": {"test_system": "KM12 colon"}, "[48]": {"test_system": "CCRF-CEM leukemia"}, "[49]": {"test_system": "SF-539 CNS"}, "[50]": {"test_system": "IGROV1 ovarian"}, "[51]": {"test_system": "TK-10 renal"}, "[52]": {"test_system": "SK-OV-3 ovarian"}, "[53]": {"test_system": "OVCAR-8 ovarian"}, "[54]": {"test_system": "RPMI-8226 leukemia"}, "[55]": {"test_system": "OVCAR-3 ovarian"}, "[56]": {"test_system": "BT-549 breast"}, "[57]": {"test_system": "MDA-N"}, "[58]": {"test_system": "NCI/ADR-RES ovarian"}, "[59]": {"test_system": "NCI-H226 lung"}},
  "note": "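Each compound was tested at five concentrations against cells in 96-well plates for 48 hours. At the TGI there is no net growth.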",
  "data": [
    {"smiles": "CCOc1ccc(C2Oc3c(cccc3OC)C=C2[N+](=O)[O-])cc1OCC", "note": "(centres undefined)", "values": [
      {"measurement": "TGI", "setting": "[1]", "value": 32.4, "unit": "µM"},
      {"measurement": "TGI", "setting": "[2]", "value": 12.8, "unit": "µM"},
      {"measurement": "TGI", "setting": "[3]", "value": 10.1, "unit": "µM"},
      {"measurement": "TGI", "setting": "[4]", "value": 9.77, "unit": "µM"},
      {"measurement": "TGI", "setting": "[5]", "value": 5.74, "unit": "µM"},
      {"measurement": "TGI", "setting": "[6]", "value": 12.8, "unit": "µM"},
      {"measurement": "TGI", "setting": "[7]", "value": 14.6, "unit": "µM"},
      {"measurement": "TGI", "setting": "[8]", "value": 45.2, "unit": "µM"},
      {"measurement": "TGI", "setting": "[9]", "value": 3.31, "unit": "µM"},
      {"measurement": "TGI", "setting": "[10]", "value": "> 100", "unit": "µM"},
      {"measurement": "TGI", "setting": "[11]", "value": 4.22, "unit": "µM"},
      {"measurement": "TGI", "setting": "[12]", "value": 28.6, "unit": "µM"},
      {"measurement": "TGI", "setting": "[13]", "value": 8.8, "unit": "µM"},
      {"measurement": "TGI", "setting": "[14]", "value": 16.6, "unit": "µM"},
      {"measurement": "TGI", "setting": "[15]", "value": 19.2, "unit": "µM"},
      {"measurement": "TGI", "setting": "[16]", "value": 8.11, "unit": "µM"},
      {"measurement": "TGI", "setting": "[17]", "value": 17.3, "unit": "µM"},
      {"measurement": "TGI", "setting": "[18]", "value": 5.6, "unit": "µM"},
      {"measurement": "TGI", "setting": "[19]", "value": "> 56.5", "unit": "µM"},
      {"measurement": "TGI", "setting": "[20]", "value": 26.8, "unit": "µM"},
      {"measurement": "TGI", "setting": "[21]", "value": 5.74, "unit": "µM"},
      {"measurement": "TGI", "setting": "[22]", "value": 23.3, "unit": "µM"},
      {"measurement": "TGI", "setting": "[23]", "value": 19.8, "unit": "µM"},
      {"measurement": "TGI", "setting": "[24]", "value": 5.19, "unit": "µM"},
      {"measurement": "TGI", "setting": "[25]", "value": 47.2, "unit": "µM"},
      {"measurement": "TGI", "setting": "[26]", "value": 3.7, "unit": "µM"},
      {"measurement": "TGI", "setting": "[27]", "value": 40, "unit": "µM"},
      {"measurement": "TGI", "setting": "[28]", "value": "> 28.4", "unit": "µM"},
      {"measurement": "TGI", "setting": "[29]", "value": 24, "unit": "µM"},
      {"measurement": "TGI", "setting": "[30]", "value": 12.9, "unit": "µM"},
      {"measurement": "TGI", "setting": "[31]", "value": 14.9, "unit": "µM"},
      {"measurement": "TGI", "setting": "[32]", "value": 5.52, "unit": "µM"},
      {"measurement": "TGI", "setting": "[33]", "value": 27, "unit": "µM"},
      {"measurement": "TGI", "setting": "[34]", "value": 16.7, "unit": "µM"},
      {"measurement": "TGI", "setting": "[35]", "value": 7.01, "unit": "µM"},
      {"measurement": "TGI", "setting": "[36]", "value": "> 67.1", "unit": "µM"},
      {"measurement": "TGI", "setting": "[37]", "value": 43.9, "unit": "µM"},
      {"measurement": "TGI", "setting": "[38]", "value": "> 100", "unit": "µM"},
      {"measurement": "TGI", "setting": "[39]", "value": "> 47.5", "unit": "µM"},
      {"measurement": "TGI", "setting": "[40]", "value": 38.3, "unit": "µM"},
      {"measurement": "TGI", "setting": "[41]", "value": 23.3, "unit": "µM"},
      {"measurement": "TGI", "setting": "[42]", "value": 7.07, "unit": "µM"},
      {"measurement": "TGI", "setting": "[43]", "value": 19, "unit": "µM"},
      {"measurement": "TGI", "setting": "[44]", "value": 11.5, "unit": "µM"},
      {"measurement": "TGI", "setting": "[45]", "value": 49.4, "unit": "µM"},
      {"measurement": "TGI", "setting": "[46]", "value": 19.7, "unit": "µM"},
      {"measurement": "TGI", "setting": "[47]", "value": 20.1, "unit": "µM"},
      {"measurement": "TGI", "setting": "[48]", "value": 6.88, "unit": "µM"},
      {"measurement": "TGI", "setting": "[49]", "value": 5.24, "unit": "µM"},
      {"measurement": "TGI", "setting": "[50]", "value": 11.1, "unit": "µM"},
      {"measurement": "TGI", "setting": "[51]", "value": 31.6, "unit": "µM"},
      {"measurement": "TGI", "setting": "[52]", "value": 64.9, "unit": "µM"},
      {"measurement": "TGI", "setting": "[53]", "value": 4.75, "unit": "µM"},
      {"measurement": "TGI", "setting": "[54]", "value": 6.49, "unit": "µM"},
      {"measurement": "TGI", "setting": "[55]", "value": 19.6, "unit": "µM"},
      {"measurement": "TGI", "setting": "[56]", "value": 29.6, "unit": "µM"},
      {"measurement": "TGI", "setting": "[57]", "value": 5.79, "unit": "µM"},
      {"measurement": "TGI", "setting": "[58]", "value": 17.9, "unit": "µM"},
      {"measurement": "TGI", "setting": "[59]", "value": 46.6, "unit": "µM"}
    ]}
  ]
}
